Data as given in ChEMBL document CHEMBL1129162, “Analogs of the orally active growth hormone secretagogue L-162,752” (Bioorg Med Chem Lett, 1996).

Species on record: Rattus norvegicus
Assay: In vitro for growth hormone release by using rat pituitary cell assay.
Type: functional
Conditions: Pituitary gland cell

Q: With `O=C(N[C@H](Cc1c[nH]c2ccccc12)C(=O)N1CCC2(CCc3ccccc32)CC1)C1CCCCN1` (stereo partly specified) as the compound, how does the EC50 read?
A: 1900 nM

Q: For `O=C(N[C@H](Cc1c[nH]c2ccccc12)C(=O)N1CCC2(CCc3ccccc32)CC1)C1CCNCC1`, which EC50 is on record?
A: 100 nM

Q: Which EC50 does the source give for `O=C(N[C@H](Cc1c[nH]c2ccccc12)C(=O)N1CCC2(CCc3ccccc32)CC1)C1CCCNC1` (stereo partly specified) here?
A: 90 nM

Q: Which EC50 does the source give for `C[C@@H](N)C(=O)N[C@H](Cc1c[nH]c2ccccc12)C(=O)N1CCC2(CCc3ccccc32)CC1` here?
A: 1000 nM

Q: For `C[C@](N)(CO)C(=O)N[C@H](Cc1c[nH]c2ccccc12)C(=O)N1CCC2(CCc3ccccc32)CC1`, which EC50 is on record?
A: 600 nM

Q: For `CC(C)(N)CC(=O)N[C@@H]1CCc2ccccc2N(Cc2ccc(-c3ccccc3-c3nn[nH]n3)cc2)C1=O`, which EC50 is on record?
A: 60 nM

Q: Which EC50 does the source give for `NCC(=O)N[C@H](Cc1c[nH]c2ccccc12)C(=O)N1CCC2(CCc3ccccc32)CC1` here?
A: 2000 nM

Q: With `C[C@H](O)CNC(C)(C)C(=O)N[C@H](Cc1c[nH]c2ccccc12)C(=O)N1CCC2(CCc3ccccc32)CC1` as the compound, how does the EC50 read?
A: 700 nM

Q: For `C[C@H](O)CNC(C)(C)CC(=O)N[C@H](Cc1c[nH]c2ccccc12)C(=O)N1CCC2(CCc3ccccc32)CC1`, which EC50 is on record?
A: 2.6 nM

Q: For `CC(C)(CC(=O)N[C@H](Cc1c[nH]c2ccccc12)C(=O)N1CCC2(CCc3ccccc32)CC1)NC[C@H](O)CO`, which EC50 is on record?
A: 16 nM

Q: For `NC1(C(=O)N[C@H](Cc2c[nH]c3ccccc23)C(=O)N2CCC3(CCc4ccccc43)CC2)CCCC1`, which EC50 is on record?
A: 2600 nM

Q: With `C[C@H](N)C(=O)N[C@H](Cc1c[nH]c2ccccc12)C(=O)N1CCC2(CCc3ccccc32)CC1` as the compound, how does the EC50 read?
A: 840 nM

Q: For `C[C@@](N)(CO)C(=O)N[C@H](Cc1c[nH]c2ccccc12)C(=O)N1CCC2(CCc3ccccc32)CC1`, which EC50 is on record?
A: 48 nM

Q: With `NC1(C(=O)N[C@H](Cc2c[nH]c3ccccc23)C(=O)N2CCC3(CCc4ccccc43)CC2)CC1` as the compound, how does the EC50 read?
A: 2100 nM

Q: For `CC(C)(N)C(=O)N[C@@H](Cc1c[nH]c2ccccc12)C(=O)N1CCC2(CCc3ccccc32)CC1`, which EC50 is on record?
A: 10000 nM

Q: With `CC(C)(N)CC(=O)N[C@H](Cc1c[nH]c2ccccc12)C(=O)N1CCC2(CCc3ccccc32)CC1` as the compound, how does the EC50 read?
A: 76 nM

Q: With `CC(C)(N)C(=O)N[C@H](Cc1c[nH]c2ccccc12)C(=O)N1CCC2(CCc3ccccc32)CC1` [L-162752] as the compound, how does the EC50 read?
A: 14 nM

Q: For `O=C(NC(Cc1c[nH]c2ccccc12)C(=O)N1CCC2(CCc3ccccc32)CC1)NC1CN2CCC1CC2` (stereo unspecified) [SPIROPIPERIDINE], which EC50 is on record?
A: 50 nM

Species on record: Rattus norvegicus
Assay: Compound was tested in vitro for growth hormone release by using rat pituitary cell assay.
Type: functional, Pituitary gland cell
Conditions: not given

Q: Which Stimulation does the source give for `NC1(C(=O)N[C@H](Cc2c[nH]c3ccccc23)C(=O)N2CCC3(CCc4ccccc43)CC2)CCCCC1` here?
A: 92%

System: not listed separately
Assay: pKa was determined
Type: physicochemical
Conditions: not given

Q: With `NC1(C(=O)N[C@H](Cc2c[nH]c3ccccc23)C(=O)N2CCC3(CCc4ccccc43)CC2)CC1` as the compound, how does the pKa read?
A: 5.9

Q: Which pKa does the source give for `CC(C)(N)C(=O)N[C@H](Cc1c[nH]c2ccccc12)C(=O)N1CCC2(CCc3ccccc32)CC1` [L-162752] here?
A: 7.9
